From patent US8871753B2, “Macrocyclic compounds and their use as kinase inhibitors” (Incyte Corporation, priority 2008, dated 2014) come the findings set out here.

Counter-ions that a name gives are not always drawn. Like-named read-outs stand apart in the source and are kept apart here.

Holding throughout (format): biochemical
In experiment [1] the target is T1, human JAK1 (a.a. 837-1142) (Homo sapiens, UniProt P23458).
T1 construct: human JAK1 (a.a. 837-1142); His tag (N); made in house; host or cells: insect cells (baculovirus)
T1 sequence (P23458 849-1154): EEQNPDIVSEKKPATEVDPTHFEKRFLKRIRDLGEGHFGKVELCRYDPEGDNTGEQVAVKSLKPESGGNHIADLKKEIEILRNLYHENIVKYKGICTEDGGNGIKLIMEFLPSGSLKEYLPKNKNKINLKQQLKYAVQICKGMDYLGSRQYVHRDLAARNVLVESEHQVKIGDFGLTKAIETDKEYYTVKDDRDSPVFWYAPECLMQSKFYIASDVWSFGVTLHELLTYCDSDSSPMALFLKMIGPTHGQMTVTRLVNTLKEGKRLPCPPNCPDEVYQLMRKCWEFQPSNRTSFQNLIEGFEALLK
Put plainly: In vitro JAK kinase assay (HTRF, phosphorylation of a biotinylated peptide), JAK1. The conditions noted are these: read-out: JAK1 IC50. The procedure, abridged:
(§1)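 Kinase activity was measured as phosphorylation of a biotinylated peptide, with ATP at 90 μM for JAK1, 30 μM for JAK2 and 3 μM for JAK3. Reactions ran 1 hr at room temperature, were stopped with EDTA plus SA-APC and Eu-Py20, and were read by HTRF after 40 minutes of antibody binding.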

Experiment [2] addresses T2, human JAK2 (a.a. 828-1132) (Homo sapiens, UniProt O60674).
T2 construct: JAK2 (a.a. 828-1132); His tag (N); made in house; host or cells: insect cells (baculovirus)
Put plainly: In vitro JAK kinase assay (HTRF, phosphorylation of a biotinylated peptide), JAK2. A digest of the protocol: as §1

The target of experiment [3] is T3, human JAK3 (a.a. 781-1124) (Homo sapiens, UniProt P52333).
T3 construct: JAK3 (a.a. 781-1124); His tag (N); made in house; host or cells: insect cells (baculovirus)
T3 sequence (P52333 781-1124): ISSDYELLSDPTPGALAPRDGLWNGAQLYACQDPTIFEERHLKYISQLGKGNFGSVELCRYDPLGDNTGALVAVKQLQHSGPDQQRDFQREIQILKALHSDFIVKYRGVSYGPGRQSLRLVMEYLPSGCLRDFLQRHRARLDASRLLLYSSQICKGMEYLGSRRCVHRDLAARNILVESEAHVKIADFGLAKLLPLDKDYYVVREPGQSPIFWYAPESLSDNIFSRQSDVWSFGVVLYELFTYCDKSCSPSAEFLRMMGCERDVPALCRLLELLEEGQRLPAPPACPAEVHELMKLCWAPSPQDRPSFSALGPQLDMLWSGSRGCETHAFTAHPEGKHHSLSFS
The experiment is described as follows: In vitro JAK kinase assay (HTRF, phosphorylation of a biotinylated peptide), JAK3. A digest of the protocol:
as §1
A general note: TR-FRET usually uses a lanthanide donor and a delayed reading to cut background.

Another experiment concerns the target TYK2 (Homo sapiens, UniProt P29597). Put plainly: TYK2 kinase inhibition (Table A1).
Experiment [4] addresses T4, Recombinant Human Anaplastic Lymphoma Kinase (Homo sapiens, UniProt Q9UM73).
T4 construct: purchased Invitrogen, Carlsbad, Calif
The experiment is described as follows: ALK HTRF kinase assay. From the text: Materials: Recombinant Human Anaplastic Lymphoma Kinase was purchased from Invitrogen, Carlsbad, Calif. Peptide substrate (Biotin-[…]-amide) was custom synthesized at EZBiolab, Westfield, Ind. Streptavidin conjugated SureLight-Allophycocyania and LANCE Eu-W1024 labeled anti-phosphotyrosine antibody were from Perkin-Elmer, Boston, Mass. Microplates were from Corning Inc., Acton, Mass. All other reagents were from Sigma, St. Louis, Mo.
Plates were read in Fusion α-FP instrument (Perkin-Elmer). […] Signal=Bottom+(Top−Bottom)/(1+10^((Log(IC50)−Log [I])*Hill Slope) Bottom and Top refer to the post and pre-transition baselines, respectively.

Where [5] appears, read: method AA1 (90 μM ATP) or AA2 (1000 μM ATP), not stated per value.
Where [6] appears, read: method AA1 (30 μM ATP) or AA2 (1000 μM ATP), not stated per value.
Setting [7] is: method AA1 (3 μM ATP) or AA2 (1000 μM ATP), not stated per value.
Where [8] appears, read: compound at 500 nM or 1 mM, 90 μM ATP.
[9] abbreviates: Table B1, cells without percent sign.

Sequence of TYK2 (P29597 whole entry): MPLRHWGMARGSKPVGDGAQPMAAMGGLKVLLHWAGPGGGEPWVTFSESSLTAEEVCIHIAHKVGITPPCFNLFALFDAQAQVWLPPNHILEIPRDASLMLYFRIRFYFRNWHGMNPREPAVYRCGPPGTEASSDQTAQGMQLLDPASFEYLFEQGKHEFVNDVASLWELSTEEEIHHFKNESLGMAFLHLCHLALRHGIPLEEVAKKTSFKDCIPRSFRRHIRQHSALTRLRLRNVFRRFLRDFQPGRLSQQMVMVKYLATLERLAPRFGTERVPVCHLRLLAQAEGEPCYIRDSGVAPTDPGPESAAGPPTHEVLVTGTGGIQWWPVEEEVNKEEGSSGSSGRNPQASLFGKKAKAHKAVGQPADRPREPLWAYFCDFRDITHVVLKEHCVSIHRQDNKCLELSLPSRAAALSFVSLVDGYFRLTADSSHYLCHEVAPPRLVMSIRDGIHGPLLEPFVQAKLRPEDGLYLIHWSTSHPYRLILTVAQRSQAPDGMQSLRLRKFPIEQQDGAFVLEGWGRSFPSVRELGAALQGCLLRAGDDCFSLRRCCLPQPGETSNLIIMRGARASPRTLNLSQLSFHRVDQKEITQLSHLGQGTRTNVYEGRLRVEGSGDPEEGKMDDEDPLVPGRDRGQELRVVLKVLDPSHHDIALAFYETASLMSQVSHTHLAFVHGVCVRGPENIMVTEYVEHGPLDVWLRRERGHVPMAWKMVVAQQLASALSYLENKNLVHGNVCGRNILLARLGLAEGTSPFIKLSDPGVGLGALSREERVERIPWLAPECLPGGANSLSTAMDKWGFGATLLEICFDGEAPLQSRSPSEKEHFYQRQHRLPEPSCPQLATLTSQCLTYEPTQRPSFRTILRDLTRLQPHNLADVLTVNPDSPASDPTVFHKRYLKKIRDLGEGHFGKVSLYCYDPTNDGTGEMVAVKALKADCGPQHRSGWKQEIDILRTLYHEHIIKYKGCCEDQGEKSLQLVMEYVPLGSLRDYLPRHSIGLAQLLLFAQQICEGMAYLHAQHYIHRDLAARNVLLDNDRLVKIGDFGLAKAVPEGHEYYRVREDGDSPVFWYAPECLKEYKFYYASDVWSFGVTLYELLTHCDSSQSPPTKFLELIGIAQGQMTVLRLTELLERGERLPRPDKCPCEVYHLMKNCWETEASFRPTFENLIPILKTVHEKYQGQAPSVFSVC
T2 sequence (O60674 828-1132): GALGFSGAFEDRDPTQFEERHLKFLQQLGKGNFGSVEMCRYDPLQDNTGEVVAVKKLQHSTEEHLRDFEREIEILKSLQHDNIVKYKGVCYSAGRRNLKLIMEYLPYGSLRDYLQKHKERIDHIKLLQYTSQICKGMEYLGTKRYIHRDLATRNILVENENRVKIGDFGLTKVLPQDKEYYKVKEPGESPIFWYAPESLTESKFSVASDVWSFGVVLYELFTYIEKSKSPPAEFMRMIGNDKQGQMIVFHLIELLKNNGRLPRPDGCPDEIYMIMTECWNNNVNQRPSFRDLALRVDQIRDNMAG
T4 sequence (Q9UM73 19-1620): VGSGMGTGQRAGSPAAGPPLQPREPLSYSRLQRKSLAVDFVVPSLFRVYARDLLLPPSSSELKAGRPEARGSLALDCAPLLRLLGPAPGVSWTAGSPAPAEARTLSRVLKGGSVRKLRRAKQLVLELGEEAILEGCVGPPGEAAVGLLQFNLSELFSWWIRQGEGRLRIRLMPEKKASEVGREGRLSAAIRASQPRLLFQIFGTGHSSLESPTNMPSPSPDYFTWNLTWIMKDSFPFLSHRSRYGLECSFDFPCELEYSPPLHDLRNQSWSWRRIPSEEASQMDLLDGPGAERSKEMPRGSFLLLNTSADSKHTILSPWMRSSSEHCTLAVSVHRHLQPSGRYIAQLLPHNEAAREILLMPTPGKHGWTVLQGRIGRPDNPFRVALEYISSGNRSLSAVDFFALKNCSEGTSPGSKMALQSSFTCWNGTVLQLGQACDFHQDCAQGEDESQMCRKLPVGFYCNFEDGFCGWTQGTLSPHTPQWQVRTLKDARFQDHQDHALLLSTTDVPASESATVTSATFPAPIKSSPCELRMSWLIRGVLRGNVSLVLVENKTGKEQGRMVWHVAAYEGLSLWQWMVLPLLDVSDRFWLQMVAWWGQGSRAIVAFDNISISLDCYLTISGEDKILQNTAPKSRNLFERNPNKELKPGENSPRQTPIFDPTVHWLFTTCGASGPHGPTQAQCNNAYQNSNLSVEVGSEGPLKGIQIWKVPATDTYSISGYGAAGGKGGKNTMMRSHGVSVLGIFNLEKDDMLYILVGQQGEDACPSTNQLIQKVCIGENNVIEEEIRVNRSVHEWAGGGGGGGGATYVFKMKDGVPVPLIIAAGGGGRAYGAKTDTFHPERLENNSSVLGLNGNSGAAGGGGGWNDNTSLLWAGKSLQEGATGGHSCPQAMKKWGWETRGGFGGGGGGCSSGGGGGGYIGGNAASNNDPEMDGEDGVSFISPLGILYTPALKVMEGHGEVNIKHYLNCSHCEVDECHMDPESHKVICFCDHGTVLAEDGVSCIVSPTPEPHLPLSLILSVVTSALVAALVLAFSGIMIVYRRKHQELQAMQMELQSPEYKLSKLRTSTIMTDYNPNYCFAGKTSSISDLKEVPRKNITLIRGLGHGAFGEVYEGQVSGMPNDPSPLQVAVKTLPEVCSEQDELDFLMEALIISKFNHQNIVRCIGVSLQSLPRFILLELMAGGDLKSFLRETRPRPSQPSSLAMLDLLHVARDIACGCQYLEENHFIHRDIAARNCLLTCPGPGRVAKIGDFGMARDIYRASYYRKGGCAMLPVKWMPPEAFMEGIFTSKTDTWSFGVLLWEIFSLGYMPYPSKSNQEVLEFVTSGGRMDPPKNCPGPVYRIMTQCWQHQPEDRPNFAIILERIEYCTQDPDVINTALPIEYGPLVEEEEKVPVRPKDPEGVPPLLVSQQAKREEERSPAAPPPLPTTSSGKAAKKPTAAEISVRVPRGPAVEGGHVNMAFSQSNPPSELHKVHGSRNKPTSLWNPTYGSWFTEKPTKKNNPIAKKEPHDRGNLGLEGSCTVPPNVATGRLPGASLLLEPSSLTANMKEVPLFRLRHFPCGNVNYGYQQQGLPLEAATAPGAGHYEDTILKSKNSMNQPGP

As to `Clc1cnc2nc1Nc1cccc(c1)/C=C\c1cccc(c1)N2` [Example A1, (14Z)-6-Chloro-2,4,8,22-tetraazatetracyclo[14.3.1.1(3,7).1(9,13)]docosa-1(20),3(22),4,6,9(21),10,12,14,16,18-decaene trifluoroacetate], the IC50 in experiment [1] (setting [5]) stood at 6 nM; in experiment [2] (setting [6]), 2.7 nM; in experiment [3] (setting [7]) it was 8.5 nM; against TYK2, 4.7 nM; in experiment [4] (90 μM ATP) it was 415 nM.
For the compound `Clc1cnc2nc1Nc1cccc(c1)CCc1cccc(c1)N2` [Example A2, 6-Chloro-2,4,8,22-tetraazatetracyclo[14.3.1.1(3,7).1(9,13)]docosa-1(20),3(22),4,6,9(21),10,12,16,18-nonaene trifluoroacetate], the IC50 in experiment [1] (setting [5]) was determined as 12 nM; in experiment [2] (setting [6]), 9.3 nM; in experiment [3] (setting [7]) it was 26 nM; on TYK2, 35 nM; in experiment [4] (90 μM ATP), 657 nM.
Turning to `CC(C)(C)OC(=O)N1CCN(C(=O)COc2ccc3cc2CCc2cccc(c2)Nc2ncc(Cl)c(n2)N3)CC1` [Example A17, tert-Butyl 4-({[6-chloro-2,4,8,22-tetraazatetracyclo[14.3.1.1(3,7).1(9,13)]docosa-1(20),3(22),4,6,9(21),10,12,16,18-nonaen-12-yl]oxy}acetyl)piperazine-1-carboxylate trifluoroacetate], the IC50 in experiment [1] (setting [5]) turned out to be 85 nM; in experiment [2] (setting [6]) it was 87 nM; in experiment [3] (setting [7]), 217 nM. Further, the “ALK % of inhibition at a concentration of 500 nM or 1 mM” value (“ALK % of inhibition” below) in experiment [4] (setting [8]) was found to be 7%.
Consider `Cc1noc(C)c1NC(=O)N1CCC(CC(=O)Nc2ccc3cc2CCc2cncc(c2)Nc2ncc(Cl)c(n2)N3)CC1` [Example A19, bis(trifluoroacetate)], for which the IC50 in experiment [1] (setting [5]) is 17 nM; in experiment [2] (setting [6]), 54 nM; in experiment [3] (setting [7]), over 100 nM. For the same compound, the “ALK % of inhibition” value in experiment [4] (compound at 500 nM or 1 mM, 90 μM ATP, bis(trifluoroacetate)) came out at 17%.
As for `N#Cc1ccc(C(=O)N2CCC(CC(=O)Nc3ccc4cc3CCc3cncc(c3)Nc3ncc(Cl)c(n3)N4)CC2)cc1` [Example A190, N-[6-Chloro-2,4,8,18,22-pentaazatetracyclo[14.3.1.1(3,7).1(9,13)]docosa-1(20),3(22),4,6,9(21),10,12,16,18-nonaen-12-yl]-2-[1-(4-cyanobenzoyl)piperidin-4-yl]acetamide bis(trifluoroacetate)], the 50% inhibitory concentration (IC50) (in experiment [2] (setting [6]); in experiment [3] (setting [7]); against TYK2) was over 200 nM each time. Further, the “ALK % of inhibition” value in experiment [4] (setting [8]) amounted to 27%.
Take `COc1cccc(S(=O)(=O)N2CCC(CC(=O)Nc3ccc4cc3CCc3cccc(c3)Nc3ncc(Cl)c(n3)N4)CC2)c1` [Example A206, N-[6-Chloro-2,4,8,22-tetraazatetracyclo[14.3.1.1(3,7).1(9,13)]docosa-1(20),3(22),4,6,9(21),10,12,16,18-nonaen-12-yl]-2-{1-[(3-methoxyphenyl)sulfonyl]piperidin-4-yl}acetamide trifluoroacetate]: the IC50 (in experiment [2] (setting [6]); in experiment [3] (setting [7]); at TYK2) was over 200 nM each time. In experiment [4] (setting [8]), the “ALK % of inhibition” value was 15%.
In the case of `Cc1ccc(C#N)c(N2CCC(CC(=O)Nc3ccc4cc3CCc3cncc(c3)Nc3ncc(Cl)c(n3)N4)CC2)n1` [Example A238, N-[6-Chloro-2,4,8,18,22-pentaazatetracyclo[14.3.1.1(3,7).1(9,13)]docosa-1(20),3(22),4,6,9(21),10,12,16,18-nonaen-12-yl]-2-[1-(3-cyano-6-methylpyridin-2-yl)piperidin-4-yl]acetamide tris(trifluoroacetate)], the half-maximal inhibitory concentration (IC50) is 18 nM in experiment [1] (setting [5]), 244 nM in experiment [2] (setting [6]) and over 400 nM in experiment [3] (setting [7]). Moreover, the “ALK % of inhibition” value in experiment [4] (setting [8]) is 15%.
Consider `Cc1ccccc1S(=O)(=O)Nc1ccc2cc1CCc1cccc(c1)Nc1ncc(Cl)c(n1)N2` [Example B149, N-[6-Chloro-2,4,8,22-tetraazatetracyclo[14.3.1.1(3,7).1(9,13)]docosa-1(20), 3(22),4,6,9(21),10,12,16,18-nonaen-12-yl]-2-methylbenzenesulfonamide trifluoroacetate], for which the IC50 in experiment [1] (Table B1) is 0.15 nM; in experiment [3] (Table B1) it was 2.4 nM; against TYK2 (Table B1), 0.51 nM; in experiment [4] (setting [9]), 350 nM.
`Clc1cnc2nc1Nc1cc(cc(CN3CCN(Cc4ccc(Oc5ncccn5)cc4)CC3)c1)CCc1cccc(c1)N2` [Example B193, 6-Chloro-11-({4-[4-(pyrimidin-2-yloxy)benzyl]piperazin-1-yl}methyl)-2,4,8,22-tetraazatetracyclo[14.3.1.1(3,7).1(9,13)]docosa-1(20),3(22),4,6,9(21),10,12,16,18-nonaene tris(trifluoroacetate)]: the half-inhibitory concentration (IC50) in experiment [1] (Table B1) is 55 nM; in experiment [2] (Table B1), 47 nM; on TYK2 (Table B1), 950 nM; in experiment [4] (setting [9]), over 1000 nM.
On the same counts, the results for `Cn1ccc(C(=O)Nc2cc3cc(c2)Nc2nc(ncc2Cl)Nc2cccc(c2)CC3)n1` [Example B207, N-[6-Chloro-2,4,8,22-tetraazatetracyclo[14.3.1.1(3,7).1(9,13)]docosa-1(20),3(22),4,6,9(21),10,12,16,18-nonaen-11-yl]-1-methyl-1H-pyrazole-3-carboxamide trifluoroacetate] are 176 nM, 125 nM, 700 nM and over 10000 nM.
Regarding `Clc1nccc(N2CCN(Cc3cc4cc(c3)Nc3nc(ncc3Cl)Nc3cccc(c3)CC4)CC2)n1` [Example B218, 6-Chloro-11-{[4-(2-chloropyrimidin-4-yl)piperazin-1-yl]methyl}-2,4,8,22-tetraazatetracyclo[14.3.1.1(3,7).1(9,13)]docosa-1(20),3(22),4,6,9(21),10,12,16,18-nonaene tris(trifluoroacetate)], the IC50 was 164 nM in experiment [1] (Table B1), 25 nM in experiment [2] (Table B1), 900 nM on TYK2 (Table B1) and over 10000 nM in experiment [4] (setting [9]).
Regarding `Cc1oncc1C(=O)N1CC[C@H](NC(=O)Nc2ccc3cc2CCc2cncc(c2)Nc2ncc(Cl)c(n2)N3)C1` [Example B266, N-[6-Chloro-2,4,8,18,22-pentaazatetracyclo[14.3.1.1(3,7).1(9,13)]docosa-1(20),3(22),4,6,9(21),10,12,16,18-nonaen-12-yl]-N′-{(3S)-1-[(5-methylisoxazol-4-yl)carbonyl]pyrrolidin-3-yl}urea bis(trifluoroacetate)], the IC50 in experiment [1] (Table B1) was 17 nM; in experiment [2] (Table B1), 601 nM; against TYK2 (Table B1) it was 25 nM. The “ALK % of inhibition” value in experiment [4] (compound at a concentration of 500 nM or 1 mM (not specified), cells shown as percentage) was determined as 22%.
On to `O=C(Nc1ccc2cc1CCc1cncc(c1)Nc1ncc(Cl)c(n1)N2)N1CCN(c2ncc(C(F)(F)F)cc2Cl)CC1` [Example B302, N-[6-Chloro-2,4,8,18,22-pentaazatetracyclo[14.3.1.1(3,7).1(9,13)]docosa-1(20),3(22),4,6,9(21),10,12,16,18-nonaen-12-yl]-4-[3-chloro-5-(trifluoromethyl)pyridin-2-yl]piperazine-1-carboxamide tris(trifluoroacetate)], for which the IC50 in experiment [1] (Table B1) is 119 nM; in experiment [2] (Table B1) it was over 400 nM; in experiment [3] (Table B1), over 400 nM. Besides, in experiment [4] (percentage inhibition of the example compound at a concentration of 500 nM or 1 mM (not specified which)), the “ALK % of inhibition” value is 69%.
As to `O=S1(=O)Cc2cccc(c2)Nc2nc(ncc2Cl)Nc2cccc(c2)N1` [Example C8, 6-Chloro-15-thia-2,4,8,16,23-pentaazatetracyclo[15.3.1.1(3,7).1(9,13)]tricosa-1(21),3(23),4,6,9(22),10,12,17,19-nonaene 15,15-dioxide trifluoroacetate], the 50% inhibitory concentration (IC50) in experiment [2] was 66 nM; in experiment [3] it was 242 nM; in experiment [4], over 1000 nM.
For the compound `Clc1cnc2nc1Nc1cccc(c1)NCc1cccc(c1)N2` [Example D16, 6-Chloro-2,4,8,14,22-pentaazatetracyclo[14.3.1.1(3,7).1(9,13)]docosa-1(20),3(22),4,6,9(21),10,12,16,18-nonaene bis(trifluoroacetate)], the IC50 is 144 nM in experiment [1] (Table D1); 113 nM in experiment [2] (Table D1); 325 nM in experiment [3] (Table D1); over 10000 nM in experiment [4] (Table D1, 90 μM ATP).
As to `[O-][S+]1CCc2cccc(c2)Nc2ncc(Cl)c(n2)Nc2cccc1c2` (centres unmarked) [Example D23, 6-Chloro-14-thia-2,4,8,23-tetraazatetracyclo[15.3.1.1(3,7).1(9,13)]tricosa-1(21),3(23),4,6,9(22),10,12,17,19-nonaene 14-oxide trifluoroacetate], the IC50 is 4.9 nM in experiment [2] (Table D1); 21 nM in experiment [3] (Table D1); 23 nM against TYK2 (Table D1); 1210 nM in experiment [4] (Table D1, 90 μM ATP).

In general, IC50 refers to the point on the concentration scale where inhibition reaches its midpoint.
